From patent US20160153032A9, “METHOD FOR PREDICTING A MANIFESTATION OF AN OUTCOME MEASURE OF A CANCER PATIENT” (Signature Diagnostics AG, priority 2013, published 2016)

Test system: patient derived xenografts (PDXs) of colorectal tumors
Test: Therapy experiments in patient derived xenograft models, treated to control (T/C) ratio of tumor size
Format: in vivo, NMRI: nu/nu mice
Details: monotherapy, 67 PDX models
Protocol: Transplantation of 239 human, primary colorectal tumors of patients with colorectal cancer of all four UICC stages was performed onto nude mice. […] For each drug and each of the 67 xenograft models, five mice were treated in addition to five control animals (335 animals plus 335 controls per drug). At the end of the therapy experiment, the median diameter of the tumors (C) of the 5 control animals is devided by the median diameter of the five treated animals (T).
Shortly after surgery, original colorectal cancer tumor pieces were shipped in gentamicin containing RPMI-1640 medium to the mouse facility. After arrival at the mouse facilities they were transplanted onto immunodeficient mice and were further passaged until a stably grown tumor xenografts has developed.
Surgical colorectal tumor samples were cut into pieces of 3 to 4 mm and transplanted within 30 min s.c. to 3 to 6 immunodeficient NOD/SCID mice (Taconic); the gender of the mice was chosen according to the donor patient. Additional tissue samples were immediately snap-frozen and stored at −80° C. for genetic, genomic, and protein analyses. […] Mice were observed daily for tumor growth. At a size of about 1 cm3, tumors were removed and passaged to naive NMRI: nu/nu mice (Charles River) for chemosensitivity testing. Tumors were passaged no more than 10 times. Numerous samples from early passages were stored in the tissue bank in liquid nitrogen and used for further experiments. […] All xenografts as well as the corresponding primary tumors were subjected to histological evaluation using snap-frozen, haematoxylin-eosin-stained tissue sections.
Each of the 75 tumors was transplanted onto 20 mice (5 controls and 5 for each drug).
The chemotherapeutic response of the passagable tumors was determined in male NMRI: nu/nu mice. For that purpose, one tumor fragment each was transplanted s.c. to a number of mice. At palpable tumor size (50-100 mm^3), 6 to 8 mice each were randomized to treatment and control groups and treatment was initiated. […] Doses and schedules were chosen according to previous experience in animal experiments and represent the maximum tolerated or efficient doses. The injection volume was 0.2 ml/20 g body weight.
Tumor size was measured in two dimensions twice weekly with a caliper-like instrument. Individual tumor volumes (V) were calculated by the formula: V=(length+[width]2)/2 and related to the values at the first day of treatment (relative tumor volume). Median treated to control (T/C) values of relative tumor volume were used for the evaluation of each treatment modality and categorized according to scores (− to ++++;). The mean tumor doubling time of each xenograft model was calculated by comparing the size between 2- and 4-fold relative tumor volumes. Statistical analyses were done with the U test (Mann and Whitney) with P<0.05. The body weight of mice was determined every 3 to 4 days and the change in body weight was taken as variable for tolerability.

## Bevacizumab: humanized monoclonal antibody that binds to vascular endothelial growth factor A (VEGF-A)
T/C</=25 (T/C<25)
  Nonresponder PDXs: 56
T/C</=30, tumor growth inhibited by at least 70%
  Responder PDXs: 13
T/C</=30
  Nonresponder PDXs: 54
T/C</=35 (T/C<35), tumor growth inhibited by at least 65%
  Responder PDXs: 19
T/C</=35 (T/C<35)
  Nonresponder PDXs: 48
